In patent US20240343704A1, “HALO-SUBSTITUTED AMINO PYRIDINE COMPOUNDS AS INHIBITORS OF THE HAEMATOPOIETIC PROGENITOR KINASE 1 (HPK1)” (priority 2021, published 2024) one finds IC50 data, which are given here for 22 compounds.

Each structure is given as a SMILES string.

The target in this experiment is T1, Recombinant (1-346) HPK1 (h) (Homo sapiens, UniProt Q92918).
T1 construct: Recombinant (1-346) HPK1 (h) is incubated with 8 mM MOPS pH 7.0
T1 sequence (Q92918 1-346): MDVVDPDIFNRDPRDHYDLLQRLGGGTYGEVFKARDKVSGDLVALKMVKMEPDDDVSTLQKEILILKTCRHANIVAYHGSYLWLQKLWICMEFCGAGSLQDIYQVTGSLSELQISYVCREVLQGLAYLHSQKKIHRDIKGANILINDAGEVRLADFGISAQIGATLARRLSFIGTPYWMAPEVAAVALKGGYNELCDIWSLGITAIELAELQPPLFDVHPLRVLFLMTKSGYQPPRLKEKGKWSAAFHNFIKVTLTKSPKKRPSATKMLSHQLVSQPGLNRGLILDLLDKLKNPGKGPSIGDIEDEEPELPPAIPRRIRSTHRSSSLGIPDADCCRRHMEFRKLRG
As to the kind of experiment: HPK1 Human STE Kinase Enzymatic Radiometric Assay. The experiment is classed as biochemical. The following applies: read-out: HPK1 IC50 nM Range*. On the procedure: A stock solution of 10 mM of test compound is prepared in DMSO. The compound plate was prepared by 3-fold and 9-point serial dilutions. […] The reaction is initiated by The addition of the Mg/ATP mix. After incubation for 40 minutes at RT, the reaction is stopped by the addition of phosphoric acid to a concentration of 0.5%.
Take `Nc1nc(F)c(-c2ccc(N3CCOCC3)c(CN3CCCCC3)c2)cc1-c1ccc2c(c1)CCNC2=O` [I-559, 6-(2-amino-6-fluoro-5-(4-morpholino-3-(piperidin-1-ylmethyl)phenyl)pyridin-3-yl)-3,4-dihydroisoquinolin-1(2H)-one]: the IC50 (commonly the midpoint of a concentration-inhibition curve) is 11 to 100 nM.

For `Cc1c[nH]c(=O)c2ccc(-c3cc(-c4ccc(N5CCN(C6CCC6)CC5)cc4)c(F)nc3N)cc12` [I-545, 6-(2-amino-5-(4-(4-cyclobutylpiperazin-1-yl)phenyl)-6-fluoropyridin-3-yl)-4-methylisoquinolin-1(2H)-one], the IC50 is 0.1 to 10 nM.

As to `Nc1nc(F)c(-c2ccc(N3CCN(CCC4CC4(F)F)CC3)cc2)cc1-c1ccc2c(c1)CCNC2=O` (stereo not shown) [I-644, 6-(2-amino-5-(4-(4-(2-(2,2-difluorocyclopropyl)ethyl)piperazin-1-yl)phenyl)-6-fluoropyridin-3-yl)-3,4-dihydroisoquinolin-1(2H)-one], the IC50 was 0.1 to 10 nM.

For the compound `Nc1nc(F)c(-c2ccc(N3CCOCC3)c(CN3CCCC3)c2)cc1-c1ccc2c(c1)CCNC2=O` [I-491, 6-(2-amino-6-fluoro-5-(4-morpholino-3-(pyrrolidin-1-ylmethyl)phenyl)pyridin-3-yl)-3,4-dihydroisoquinolin-1(2H)-one], the IC50 lay in the range of 11 to 100 nM.

In the case of `COCCN(C)Cc1cc(-c2cc(-c3cc4c(cc3F)C(=O)NCC4)c(N)nc2F)ccc1C1CCOCC1` [I-574, 6-(2-amino-6-fluoro-5-(3-(((2-methoxyethyl)(methyl)amino)methyl)-4-(tetrahydro-2H-pyran-4-yl)phenyl)pyridin-3-yl)-7-fluoro-3,4-dihydroisoquinolin-1(2H)-one], the IC50 lay within 0.1 to 10 nM.

Take `Cc1c[nH]c(=O)c2ccc(-c3cc(-c4ccc(N5CCOCC5)c(CN(C)C)c4)c(F)nc3N)cc12` [I-502, 6-(2-amino-5-(3-((dimethylamino)methyl)-4-morpholinophenyl)-6-fluoropyridin-3-yl)-4-methylisoquinolin-1(2H)-one]: the IC50 lay in the range of 0.1 to 10 nM.

For `Cc1[nH]c(=O)c2cc(F)c(-c3cc(-c4ccc(N5CCN(C(C)C)CC5)cc4)c(F)nc3N)cc2c1F` [I-572, 6-(2-amino-6-fluoro-5-(4-(4-isopropylpiperazin-1-yl)phenyl)pyridin-3-yl)-4,7-difluoro-3-methylisoquinolin-1(2H)-one], the half-maximal inhibitory concentration (IC50) was in the range of 0.1 to 10 nM.

Turning to `CCN(C)Cc1nc(-c2cc(-c3ccc4c(c3)CCNC4=O)c(N)nc2F)ccc1C1CCOCC1` [I-603, 6-(6′-amino-6-((ethyl(methyl)amino)methyl)-2′-fluoro-5-(tetrahydro-2H-pyran-4-yl)-[2,3′-bipyridin]-5′-yl)-3,4-dihydroisoquinolin-1(2H)-one], the IC50 is 0.1 to 10 nM.

On to `COc1ccc(-c2cc(-c3cc4c(cc3F)C(=O)NCC4)c(N)nc2F)cc1CN1CC(OC)C1` [I-517, 6-(2-amino-6-fluoro-5-(4-methoxy-3-((3-methoxyazetidin-1-yl)methyl)phenyl)pyridin-3-yl)-7-fluoro-3,4-dihydroisoquinolin-1(2H)-one], for which the IC50 fell in the range of 11 to 100 nM.

Regarding `CC(=O)N1CCC(Oc2ccc(-c3cc(-c4cc5c(cc4F)C(=O)NCC5)c(N)nc3F)cc2CN(C)C)CC1` [I-569, 6-(5-(4-((1-acetylpiperidin-4-yl)oxy)-3-((dimethylamino)methyl)phenyl)-2-amino-6-fluoropyridin-3-yl)-7-fluoro-3,4-dihydroisoquinolin-1(2H)-one], the IC50 was in the range of 11 to 100 nM.

As to `CN(C)Cc1cc(-c2cc(-c3ccc4c(=O)[nH]ccc4c3)c(N)nc2F)ccc1N1CCN(CCCC(F)F)CC1` [I-453, 6-(2-amino-5-(4-(4-(4,4-difluorobutyl)piperazin-1-yl)-3-((dimethylamino)methyl)phenyl)-6-fluoropyridin-3-yl)isoquinolin-1(2H)-one], the IC50 lay within 0.1 to 10 nM.

As for `Cc1cc2cc(-c3cc(-c4ccc(N5CCN(C(C)C)CC5)cc4)c(F)nc3N)c(F)cc2c(=O)[nH]1` [I-587, 6-(2-amino-6-fluoro-5-(4-(4-isopropylpiperazin-1-yl)phenyl)pyridin-3-yl)-7-fluoro-3-methylisoquinolin-1(2H)-one], the 50% inhibitory concentration (IC50) was in the range of 11 to 100 nM.

Take `CCN(C)Cc1nc(-c2cc(-c3cc4c(cc3F)C(=O)NCC4)c(N)nc2F)ccc1C1CCOCC1` [I-604, 6-(6′-amino-6-((ethyl(methyl)amino)methyl)-2′-fluoro-5-(tetrahydro-2H-pyran-4-yl)-[2,3′-bipyridin]-5′-yl)-7-fluoro-3,4-dihydroisoquinolin-1(2H)-one]: the IC50 fell in the range of 0.1 to 10 nM.

`COc1c[nH]c(=O)c2ccc(-c3cc(-c4ccc(N5CCN(C(C)C)CC5)cc4)c(F)nc3N)cc12` [I-537]: the IC50 was 0.1 to 10 nM.

Take `COc1ccc(-c2cc(-c3ccc4c(c3)CCNC4=O)c(N)nc2F)cc1CO` [I-536, 6-(2-amino-6-fluoro-5-(3-(hydroxymethyl)-4-methoxyphenyl)pyridin-3-yl)-3,4-dihydroisoquinolin-1(2H)-one]: the concentration for half-maximal inhibition (IC50) fell in the range of 11 to 100 nM.

Consider `CC(C)N1CCN(c2ccc(-c3cc(-c4cc(F)c5c(=O)[nH]cc(F)c5c4)c(N)nc3F)cc2)CC1` [I-482, 6-(2-amino-6-fluoro-5-(4-(4-isopropylpiperazin-1-yl)phenyl)pyridin-3-yl)-4,8-difluoroisoquinolin-1(2H)-one], for which the IC50 fell in the range of 0.1 to 10 nM.

Take `CC(=O)N1CCN(c2ccc(-c3cc(-c4cc5c(cc4F)C(=O)NCC5)c(N)nc3F)nc2)CC1` [I-592, 6-(5-(4-acetylpiperazin-1-yl)-6′-amino-2′-fluoro-[2,3′-bipyridin]-5′-yl)-7-fluoro-3,4-dihydroisoquinolin-1(2H)-one]: the IC50 is 0.1 to 10 nM.

On to `CO[C@H]1CCN(Cc2cc(-c3cc(-c4ccc5c(c4)CCNC5=O)c(N)nc3F)ccc2N2CCOCC2)C1` [I-565, (S)-6-(2-amino-6-fluoro-5-(3-((3-methoxypyrrolidin-1-yl)methyl)-4-morpholinophenyl)pyridin-3-yl)-3,4-dihydroisoquinolin-1(2H)-one], for which the IC50 was 0.1 to 10 nM.

For `Cc1nc2cc(-c3cc(-c4ccc(N5CCOCC5)c(CN(C)C)c4)c(F)nc3N)ccc2c(=O)[nH]1` [I-474, 7-(2-amino-5-(3-((dimethylamino)methyl)-4-morpholinophenyl)-6-fluoropyridin-3-yl)-2-methylquinazolin-4(3H)-one], the IC50 lay within 11 to 100 nM.

With `Nc1nc(F)c(-c2ccc(N3CCOCC3)c(F)c2)cc1-c1cc(F)c2c(c1)CCNC2=O` [I-361, 6-(2-amino-6-fluoro-5-(3-fluoro-4-morpholinophenyl)pyridin-3-yl)-8-fluoro-3,4-dihydroisoquinolin-1(2H)-one], the concentration for half-maximal inhibition (IC50) lay within 0.1 to 10 nM.

`C[C@@H]1CN(c2ccc(-c3cc(-c4cc5c(cc4F)C(=O)NCC5)c(N)nc3F)cc2CN(C)C)C[C@H](C)O1` [I-597, 6-(2-amino-5-(3-((dimethylamino)methyl)-4-((2R,6S)-2,6-dimethylmorpholino)phenyl)-6-fluoropyridin-3-yl)-7-fluoro-3,4-dihydroisoquinolin-1(2H)-one]: the IC50 was in the range of 11 to 100 nM.

As for `CC(C)N1CCN(c2ccc(-c3cc(-c4ccc5c(=O)[nH]c(N)nc5c4)c(N)nc3F)cc2)CC1` [I-422, 2-amino-7-(2-amino-6-fluoro-5-(4-(4-isopropylpiperazin-1-yl)phenyl)pyridin-3-yl)quinazolin-4(3H)-one], the IC50 was 0.1 to 10 nM.
